Assay results as given in patent US20240294545A1 (CSPC Zhongqi Pharmaceutical Technology (Shijiazhuang) Co., …, priority 2020, published 2024).

Assays:
Type in all cases: biochemical
PI3Kδ (p110δ/p85δ) = PI3Kδ (p110δ/p85δ) (Homo sapiens (Human), UniProt O00329); assay: ADP-Glo kinase assay for PI3Kδ; conditions: read-out: IC50 of kinase inhibitory activity, PI3K δ
Method: (§1) 1.3 Determination of the Inhibitory Activities of Compounds on PI3Kα, PI3Kβ, PI3Kγ, and PI3Kδ Kinase: ADP-Glo Kinase Assay
(§2) Experimental procedures • (1) Preparation of 1× kinase buffer • 50 mM HEPES, pH 7.5 • 3 mM MgCl2 • 1 mM EGTA • 100 mM NaCl • 0.03% CHAPS • 2 mM DTT • (2) Preparation of test compound • 1) Dissolution and dilution of compound: • The compound was dissolved in DMSO to yield a stock solution. Before the assay, the stock solution of the compound was diluted with DMSO in a 384-well plate to yield a 100× solution at a concentration that is 100 times a target concentration for assay. • 50 μL of DMSO was added, respectively, into two blank wells in the same 384 well plate, corresponding to the total reaction control without compound and the blank control without enzyme. • 2) Preparation of test plate: 50 nL of the compound solution in each of the above wells was taken to a test plate. • (3) Kinase reaction • 1) PI3Kα, PI3Kβ, PI3Kγ, and PI3Kδ kinases were dissolved, respectively, in 1× kinase buffer to yield a 2× enzyme solution at a concentration that is twice the final concentration. 2.5 µL of the 2× enzyme solution was taken to each well of the test plate. The blank control without enzyme was added with 2.5 μL of the 1× kinase buffer instead of the enzyme solution. […]

PI3Kγ (pp110gamma) = PI3Kγ (pp110gamma) (Homo sapiens (Human), UniProt P48736); assay: ADP-Glo kinase assay for PI3Kγ; conditions: read-out: IC50 of kinase inhibitory activity, PI3K γ
Sequence of PI3Kγ (pp110gamma) (P48736 whole entry): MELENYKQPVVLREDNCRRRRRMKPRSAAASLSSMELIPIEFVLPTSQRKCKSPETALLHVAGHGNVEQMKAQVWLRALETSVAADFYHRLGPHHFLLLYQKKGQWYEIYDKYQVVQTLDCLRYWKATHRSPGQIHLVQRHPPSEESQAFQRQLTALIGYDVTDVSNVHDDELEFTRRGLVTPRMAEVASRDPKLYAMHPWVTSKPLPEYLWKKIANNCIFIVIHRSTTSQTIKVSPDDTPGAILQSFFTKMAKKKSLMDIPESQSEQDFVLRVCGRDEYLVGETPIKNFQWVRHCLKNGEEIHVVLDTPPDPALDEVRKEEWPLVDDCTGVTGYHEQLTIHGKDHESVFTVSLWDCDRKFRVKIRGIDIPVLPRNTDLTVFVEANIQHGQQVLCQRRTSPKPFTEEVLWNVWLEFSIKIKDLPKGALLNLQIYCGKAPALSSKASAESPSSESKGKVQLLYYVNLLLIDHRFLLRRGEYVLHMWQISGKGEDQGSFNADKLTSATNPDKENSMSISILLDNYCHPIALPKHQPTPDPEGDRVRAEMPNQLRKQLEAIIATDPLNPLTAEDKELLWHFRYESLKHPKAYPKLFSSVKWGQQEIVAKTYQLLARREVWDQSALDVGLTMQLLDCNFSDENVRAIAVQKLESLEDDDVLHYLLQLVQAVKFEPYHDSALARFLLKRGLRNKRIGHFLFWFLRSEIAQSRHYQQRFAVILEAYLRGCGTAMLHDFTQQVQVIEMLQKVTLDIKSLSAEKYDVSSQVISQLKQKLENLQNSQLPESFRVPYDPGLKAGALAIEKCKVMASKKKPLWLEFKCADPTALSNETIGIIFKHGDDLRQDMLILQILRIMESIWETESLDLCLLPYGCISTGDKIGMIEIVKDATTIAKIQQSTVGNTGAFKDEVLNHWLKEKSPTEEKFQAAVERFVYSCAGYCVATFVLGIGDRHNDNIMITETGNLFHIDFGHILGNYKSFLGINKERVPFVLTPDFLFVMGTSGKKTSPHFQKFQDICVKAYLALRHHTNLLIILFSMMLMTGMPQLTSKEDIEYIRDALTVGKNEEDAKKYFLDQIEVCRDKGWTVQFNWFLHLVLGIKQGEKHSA
Method: as §1, §2

ATR = ATR (Homo sapiens (Human), UniProt Q13535); assay: Caliper mobility shift assay for ATR; conditions: read-out: IC50 of kinase inhibitory activity, ATR
Method: 1.6 Determination of the Inhibitory Activity of Compounds on ATR: Caliper Mobility Shift Assay for ATR
• (1) Preparation of 1× kinase buffer and reaction termination solution • 1) 1× kinase buffer • 50 mM HEPES, pH 7.5 • 0.0015% Brij-35 • […] • 2) Reaction termination solution • 100 mM HEPES, pH 7.5 • 0.015% Brij-35 • 0.2% Coating Reagent #3 • 50 mM EDTA • (2) Preparation of test compound • 1) The compound was dissolved in DMSO to yield a stock solution. Before the assay, to a 96-well plate, 30 μL of a 10 mM stock solution was taken and added with 60 μL of DMSO. […]

mTOR = mTOR (Homo sapiens (Human), UniProt P42345); assay: LanceUltra kinase assay for mTOR; conditions: read-out: IC50 of kinase inhibitory activity, mTOR
Sequence of mTOR (P42345 1362-2549): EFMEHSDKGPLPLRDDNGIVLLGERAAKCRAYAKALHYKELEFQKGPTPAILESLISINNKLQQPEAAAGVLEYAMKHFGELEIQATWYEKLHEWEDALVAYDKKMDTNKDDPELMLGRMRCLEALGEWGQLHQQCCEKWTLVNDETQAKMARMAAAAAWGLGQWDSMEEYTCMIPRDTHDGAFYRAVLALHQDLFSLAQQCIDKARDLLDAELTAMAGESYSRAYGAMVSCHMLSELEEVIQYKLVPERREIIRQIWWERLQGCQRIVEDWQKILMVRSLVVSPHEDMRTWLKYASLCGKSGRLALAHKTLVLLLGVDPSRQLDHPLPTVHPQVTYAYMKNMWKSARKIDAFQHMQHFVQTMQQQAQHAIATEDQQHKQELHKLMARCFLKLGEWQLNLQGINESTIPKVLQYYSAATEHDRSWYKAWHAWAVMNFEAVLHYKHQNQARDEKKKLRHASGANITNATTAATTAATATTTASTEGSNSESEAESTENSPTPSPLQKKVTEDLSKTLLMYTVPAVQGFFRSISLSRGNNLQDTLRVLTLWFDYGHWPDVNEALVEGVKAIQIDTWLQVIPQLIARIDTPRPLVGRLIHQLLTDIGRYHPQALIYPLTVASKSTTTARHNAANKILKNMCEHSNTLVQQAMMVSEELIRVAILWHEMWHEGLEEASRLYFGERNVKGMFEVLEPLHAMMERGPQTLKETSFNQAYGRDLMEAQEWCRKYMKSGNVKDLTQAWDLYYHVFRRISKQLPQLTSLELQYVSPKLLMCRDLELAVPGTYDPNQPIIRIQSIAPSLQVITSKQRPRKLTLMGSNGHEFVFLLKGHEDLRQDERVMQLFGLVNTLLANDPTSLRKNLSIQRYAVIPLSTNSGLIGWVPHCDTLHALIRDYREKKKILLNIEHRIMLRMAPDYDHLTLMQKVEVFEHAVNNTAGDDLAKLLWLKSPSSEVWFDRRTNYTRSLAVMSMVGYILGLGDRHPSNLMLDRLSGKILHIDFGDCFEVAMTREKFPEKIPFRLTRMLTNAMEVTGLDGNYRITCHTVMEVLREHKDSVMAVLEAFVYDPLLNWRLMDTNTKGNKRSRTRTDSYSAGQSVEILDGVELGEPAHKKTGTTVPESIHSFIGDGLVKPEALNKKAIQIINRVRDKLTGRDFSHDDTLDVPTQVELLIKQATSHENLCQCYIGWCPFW

DNA-PK = DNA-PK (Homo sapiens (Human), UniProt P78527); assay: ADP-Glo kinase assay for DNA-PK; conditions: read-out: IC50 of kinase inhibitory activity, DNA-PK
Method: 1.4 Determination of the Inhibitory Activities of Compounds on DNA-PK Kinase: ADP-Glo Kinase Assay
• (1) Preparation of 1× kinase buffer • 40 mM Tris, pH 7.5 • 0.0055% Brij-35 • 20 mM MgCl2 • 0.05 mM DTT • (2) Preparation of test compound • 1) The compound was dissolved in DMSO to yield a stock solution. Before the assay, the stock solution of the compound was diluted with DMSO to yield a 100× solution at a concentration that is 100 times a target concentration for assay. If the target concentration was […], the stock solution should be diluted to yield a 1 mM solution at this step. • 2) 100 μL of DMSO was added, respectively, into two blank wells in the same 96 well plate, corresponding to the total reaction control without compound and the blank control without enzyme. • 3) Preparation of test plate: 50 nL of the compound solution in each of the above wells was taken to a 384-well plate as a test plate. • (3) Kinase reaction • 1) DNA-PK kinase was dissolved in 1× kinase buffer to yield a 2× enzyme solution that is twice the final concentration. 2.5 μL of the 2× enzyme solution was taken to each well of the test plate. The blank control without enzyme was added with 2.5 μL of the 1× kinase buffer instead of the enzyme solution. […]

ATM = ATM (Homo sapiens (Human), UniProt Q13315); assay: Caliper mobility shift assay for ATM; conditions: read-out: IC50 of inhibitory activity on ATM kinase
Method: 1.2 Determination of the Inhibitory Activities of Compounds on ATM: Caliper Mobility Shift Assay for ATM
To a 96-well plate, 98 μL of DMSO and 2 μL of the 10 mM stock solution were added and mixed evenly so that the concentration of the solution was 200 μM.
Based on the inhibitory rates of the compound at different concentrations, IC50 was calculated according to the formula: Y=Bottom+(Top−Bottom)/(1+(IC50/X)^HillSlope).

PI3Kα (p110α/p85α) = PI3Kα (p110α/p85α) (Homo sapiens (Human), UniProt P42336); assay: ADP-Glo kinase assay for PI3Kα; conditions: read-out: IC50 of kinase inhibitory activity, PI3K α
Sequence of PI3Kα (p110α/p85α) (P42336 whole entry): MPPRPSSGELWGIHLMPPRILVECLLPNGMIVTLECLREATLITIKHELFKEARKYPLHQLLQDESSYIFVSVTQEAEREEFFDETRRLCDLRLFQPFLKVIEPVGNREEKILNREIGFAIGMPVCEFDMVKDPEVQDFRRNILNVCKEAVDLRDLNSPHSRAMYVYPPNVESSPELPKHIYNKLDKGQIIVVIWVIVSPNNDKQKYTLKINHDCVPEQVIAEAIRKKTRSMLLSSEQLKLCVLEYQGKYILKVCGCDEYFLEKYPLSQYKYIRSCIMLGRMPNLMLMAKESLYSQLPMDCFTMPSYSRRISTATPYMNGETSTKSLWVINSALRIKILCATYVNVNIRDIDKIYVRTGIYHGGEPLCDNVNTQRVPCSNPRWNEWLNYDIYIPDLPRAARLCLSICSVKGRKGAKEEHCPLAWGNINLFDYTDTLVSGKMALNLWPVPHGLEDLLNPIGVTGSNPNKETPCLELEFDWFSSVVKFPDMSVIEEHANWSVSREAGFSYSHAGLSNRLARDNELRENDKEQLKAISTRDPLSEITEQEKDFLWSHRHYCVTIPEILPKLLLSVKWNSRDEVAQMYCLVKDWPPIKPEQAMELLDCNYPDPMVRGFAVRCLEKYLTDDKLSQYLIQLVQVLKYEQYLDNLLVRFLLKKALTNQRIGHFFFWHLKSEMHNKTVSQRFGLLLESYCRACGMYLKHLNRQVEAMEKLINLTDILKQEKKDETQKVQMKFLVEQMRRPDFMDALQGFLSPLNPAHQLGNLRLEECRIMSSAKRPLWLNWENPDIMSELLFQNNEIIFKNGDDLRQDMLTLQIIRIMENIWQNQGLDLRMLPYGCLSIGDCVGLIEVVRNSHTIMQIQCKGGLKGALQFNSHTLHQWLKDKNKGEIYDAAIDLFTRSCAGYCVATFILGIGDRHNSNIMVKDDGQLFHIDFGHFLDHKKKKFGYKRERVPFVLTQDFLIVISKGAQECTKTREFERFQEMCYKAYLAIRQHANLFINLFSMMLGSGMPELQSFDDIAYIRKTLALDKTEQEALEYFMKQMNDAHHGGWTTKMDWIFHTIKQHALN
Sequence of PI3Kα (p110α/p85α) (P27986 whole entry partner): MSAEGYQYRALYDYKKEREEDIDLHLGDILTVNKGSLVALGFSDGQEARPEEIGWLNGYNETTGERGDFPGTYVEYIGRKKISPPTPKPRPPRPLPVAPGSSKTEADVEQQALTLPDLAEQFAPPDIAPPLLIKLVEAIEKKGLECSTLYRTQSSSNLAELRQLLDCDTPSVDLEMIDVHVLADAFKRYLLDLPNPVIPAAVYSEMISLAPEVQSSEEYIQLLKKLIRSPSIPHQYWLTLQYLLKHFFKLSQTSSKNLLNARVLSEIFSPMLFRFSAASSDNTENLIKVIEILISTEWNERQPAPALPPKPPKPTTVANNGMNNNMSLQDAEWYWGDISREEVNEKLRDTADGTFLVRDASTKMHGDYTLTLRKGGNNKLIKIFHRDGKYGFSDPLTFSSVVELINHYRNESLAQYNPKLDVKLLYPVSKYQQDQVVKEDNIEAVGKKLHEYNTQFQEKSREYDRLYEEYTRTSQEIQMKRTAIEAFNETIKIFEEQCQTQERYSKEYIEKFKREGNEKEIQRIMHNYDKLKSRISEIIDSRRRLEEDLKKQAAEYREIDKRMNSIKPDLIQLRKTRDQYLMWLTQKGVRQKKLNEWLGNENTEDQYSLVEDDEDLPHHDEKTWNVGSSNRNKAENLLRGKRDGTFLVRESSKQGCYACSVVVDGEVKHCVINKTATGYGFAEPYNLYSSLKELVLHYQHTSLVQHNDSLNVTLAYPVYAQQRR
Method: as §1, §2

PI3Kβ (p110β) = assay: ADP-Glo kinase assay for PI3Kβ; conditions: read-out: IC50 of kinase inhibitory activity, PI3K β
Method: as §1, §2

CC[C@@H]1COc2c(-c3ccc(OCCCN4CCCCC4)nc3)c(F)cc3ncc4c(c23)n1c(=O)n4C [Example A-22, (R)-10-ethyl-6-fluoro-2-methyl-7-(6-(3-(piperidin-1-yl)propoxy)pyridin-3-yl)-9,10-dihydro-8-oxa-2,4,10a-triazanaphtho[2,1,8-cde]azulen-1(2H)-one]
IC50 (PI3Kδ (p110δ/p85δ)): > 10 µM
IC50 (PI3Kγ (pp110gamma)): > 10 µM
IC50 (ATR): > 10 µM
IC50 (mTOR): 1.28 µM
IC50 (DNA-PK): 0.852 µM
IC50 (ATM): 0.00052 µM
IC50 (PI3Kα (p110α/p85α)): 6.28 µM
IC50 (PI3Kβ (p110β)): > 10 µM
